Test results: US4234583A, “2-Chloro-4-(4-lower alkyl-1-piperazinyl)benzenemethanol, N^ω -oxides and methods for their preparation” (priority 1978, dated 1980)
Where “and” joins values, the source holds several entries; their conditions need not be identical. Identical values can stand only once.

Tests used:
[1] = Acute intramuscular toxicity (LD50) in uninfected mice; conditions: mouse, in vivo, im, read-out: Approximate Acute Intramuscular LD50
From the text: Approximate Acute Intramuscular LD50
Values in Uninfected Mice

[2] = tested on: Mature S. mansoni, Puerto Rican/Michigan strain; assay: Primary screen in mice, single oral doses, mature S. mansoni infection (Puerto Rican/Michigan strain); type: in vivo
From the text: (§1) The compounds of the invention are useful in the treatment of schistosomiasis. Compounds of this invention, when placed in the primary screen in mice described in Am. J. Trop.
(§2) Effects of Single Oral Doses (Aqueous Solutions ) of 2-Chloro-
(§3) 4-(4-alkyl-1-piperazinyl)benzenemethanol, N^ω -oxides Against
(§4) Mature S. mansoni Infections in Mice

[3] = tested on: Salmonella typhimurium TA-100; type: cell-based
From the text: The compounds of this invention have the specific advantage over the corresponding des-N-oxide compounds in that the compounds are non-mutagenic in a test designed to determine mutagenicity which is described in J. Pharm. Exp. Therap., 200, 1 (1977).
Mutagenic Activity Using Salmonella typhimurium (TA-98 and TA-100)

[4] = tested on: Mature S. mansoni, Puerto Rican/Sterling Winthrop strain; assay: Primary screen in mice, single oral doses, mature S. mansoni infection (Puerto Rican/Sterling Winthrop strain); type: in vivo
From the text: as §1, §2, §3, §4

[5] = tested on: Mature S. mansoni, Puerto Rican/Walter Reed strain; assay: Primary screen in mice, single oral doses, mature S. mansoni infection (Puerto Rican/Walter Reed strain); type: in vivo
From the text: as §1, §2, §3, §4

[6] = tested on: Mature S. mansoni, St. Lucian strain; assay: Primary screen in mice, single oral doses, mature S. mansoni infection (St. Lucian strain); type: in vivo
From the text: as §1, §2, §3, §4

[7] = tested on: Mature S. mansoni, Brazilian strain; assay: Primary screen in mice, single oral doses, mature S. mansoni infection (Brazilian strain); type: in vivo
From the text: as §1, §2, §3, §4

[8] = tested on: Mature S. mansoni, Liberian strain; assay: Primary screen in mice, single oral doses, mature S. mansoni infection (Liberian strain); type: in vivo
From the text: as §1, §2, §3, §4

[9] = tested on: Mature S. mansoni (Puerto Rican/Walter Reed Strain); assay: Secondary test in monkeys, mature S. mansoni infection; type: in vivo; conditions: monkeys (Cebus apella), 50 × 4 mg/kg
From the text: The preferred compound of the invention, when placed in a secondary test in monkeys described in Am. J. Trop. Med. Hyg. 15, 705 (1966) gave the following data:
Effects of 2-chloro-4-(4-methyl-1-piperazinyl)benzenemethanol,
N^ω -oxide Against Mature S. mansoni (Puerto Rican/Walter Reed
Strain) Infections in Monkeys (Cebus apella)

## CC(C)N1CCN(c2ccc(CO)c(Cl)c2)CC1 [CH(CH3)2 des N-oxide, 2-chloro-4-[4-(1-methylethyl)-1-piperazinyl]benzenemethanol, reference compound]
[1]
  LD50: 100 mg/kg

## CC[N+]1([O-])CCN(c2ccc(CO)c(Cl)c2)CC1 [C2 H5, 2-chloro-4-(4-ethyl-1-piperazinyl)benzenemethanol, N^ω -oxide]
[2]; single oral dose 75 mg/kg
  % Mice Cured: 71%
  % Reduction Live Worms: 92%
[1]
  LD50: > 250 mg/kg

## CCN1CCN(c2ccc(CO)c(Cl)c2)CC1 [C2 H5 des N-oxide, 2-chloro-4-(4-ethyl-1-piperazinyl)benzenemethanol, reference compound]
[1]
  LD50: 150 mg/kg

## CN1CCN(c2ccc(CO)c(Cl)c2)CC1 [CH3 des N-oxide, 2-chloro-4-(4-methyl-1-piperazinyl)benzenemethanol, reference compound]
[3]
  Mutagenic activity, Revertants per n mole: 0.1 Revertants per n mole
[1]
  LD50: 200 mg/kg

## CC(C)[N+]1([O-])CCN(c2ccc(CO)c(Cl)c2)CC1 [CH(CH3)2, 2-chloro-4-[4-(1-methylethyl)-1-piperazinyl]-benzenemethanol, N^ω -oxide]
[2]; single oral dose 40 mg/kg
  % Mice Cured: 19%
  % Reduction Live Worms: 57%
[2]; single oral dose 75 mg/kg
  % Mice Cured: 100%
  % Reduction Live Worms: 100%
[2]; single oral dose 125 mg/kg
  % Mice Cured: 57%
  % Reduction Live Worms: 90%
[4]; single oral dose 75 mg/kg
  % Mice Cured: 0%
  % Reduction Live Worms: 25%
[5]; single oral dose 40 mg/kg
  % Mice Cured: 75%
  % Reduction Live Worms: 96%
[5]; single oral dose 75 mg/kg
  % Mice Cured: 72%
  % Reduction Live Worms: 85%
[6]; single oral dose 40 mg/kg
  % Mice Cured: 0%
  % Reduction Live Worms: 50%
[6]; single oral dose 75 mg/kg
  % Mice Cured: 57%
  % Reduction Live Worms: 75%
[7]; single oral dose 40 mg/kg
  % Mice Cured: 0%
  % Reduction Live Worms: 32%
[8]; single oral dose 75 mg/kg
  % Mice Cured: 0%
  % Reduction Live Worms: 42%
[8]; single oral dose 125 mg/kg
  % Mice Cured: 100%
  % Reduction Live Worms: 100%
[3]
  Mutagenic activity, Revertants per n mole: 0.007 Revertants per n mole
[1]
  LD50: > 1500 mg/kg

## C[N+]1([O-])CCN(c2ccc(CO)c(Cl)c2)CC1 [CH3, 2-chloro-4-(4-methyl-1-piperazinyl)benzenemethanol, N^ω -oxide]
[2]; single oral dose 40 mg/kg
  % Mice Cured: 43%
  % Reduction Live Worms: 79%
[2]; single oral dose 75 mg/kg
  % Mice Cured: 52%
  % Reduction Live Worms: 90%
[2]; single oral dose 300 mg/kg
  % Mice Cured: 87%
  % Reduction Live Worms: 99%
[4]; single oral dose 40 mg/kg
  % Mice Cured: 33%
  % Reduction Live Worms: 56%
[4]; single oral dose 75 mg/kg
  % Mice Cured: 60%
  % Reduction Live Worms: 69%
[5]; single oral dose 100 mg/kg
  % Mice Cured: 100%
  % Reduction Live Worms: 100%
[6]; single oral dose 150 mg/kg
  % Mice Cured: 0%
  % Reduction Live Worms: 16%
[7]; single oral dose 20 mg/kg
  % Mice Cured: 0%
  % Reduction Live Worms: 73%
[7]; single oral dose 40 mg/kg
  % Mice Cured: 51%
  % Reduction Live Worms: 88%
[8]; single oral dose 50 mg/kg
  % Mice Cured: 0%
  % Reduction Live Worms: 25%
[9]
  Final Egg Count: 0
[9]; N^ω -oxide, 4 mg/kg
  % Reduction Live Worms: 92% and 91%
[1]
  LD50: 1500 mg/kg
